Patent publication US20240158412A1 (Faxian Therapeutics, LLC, priority 2021, published 2024)

Molecular target: USP7 (Homo sapiens, UniProt Q93009)
Experiment: biochemical
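Note: fluorescence intensity readout of USP7 enzymatic activity, reaction incubated 90 min at room temperature.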

USP7, sequence (Q93009 whole entry): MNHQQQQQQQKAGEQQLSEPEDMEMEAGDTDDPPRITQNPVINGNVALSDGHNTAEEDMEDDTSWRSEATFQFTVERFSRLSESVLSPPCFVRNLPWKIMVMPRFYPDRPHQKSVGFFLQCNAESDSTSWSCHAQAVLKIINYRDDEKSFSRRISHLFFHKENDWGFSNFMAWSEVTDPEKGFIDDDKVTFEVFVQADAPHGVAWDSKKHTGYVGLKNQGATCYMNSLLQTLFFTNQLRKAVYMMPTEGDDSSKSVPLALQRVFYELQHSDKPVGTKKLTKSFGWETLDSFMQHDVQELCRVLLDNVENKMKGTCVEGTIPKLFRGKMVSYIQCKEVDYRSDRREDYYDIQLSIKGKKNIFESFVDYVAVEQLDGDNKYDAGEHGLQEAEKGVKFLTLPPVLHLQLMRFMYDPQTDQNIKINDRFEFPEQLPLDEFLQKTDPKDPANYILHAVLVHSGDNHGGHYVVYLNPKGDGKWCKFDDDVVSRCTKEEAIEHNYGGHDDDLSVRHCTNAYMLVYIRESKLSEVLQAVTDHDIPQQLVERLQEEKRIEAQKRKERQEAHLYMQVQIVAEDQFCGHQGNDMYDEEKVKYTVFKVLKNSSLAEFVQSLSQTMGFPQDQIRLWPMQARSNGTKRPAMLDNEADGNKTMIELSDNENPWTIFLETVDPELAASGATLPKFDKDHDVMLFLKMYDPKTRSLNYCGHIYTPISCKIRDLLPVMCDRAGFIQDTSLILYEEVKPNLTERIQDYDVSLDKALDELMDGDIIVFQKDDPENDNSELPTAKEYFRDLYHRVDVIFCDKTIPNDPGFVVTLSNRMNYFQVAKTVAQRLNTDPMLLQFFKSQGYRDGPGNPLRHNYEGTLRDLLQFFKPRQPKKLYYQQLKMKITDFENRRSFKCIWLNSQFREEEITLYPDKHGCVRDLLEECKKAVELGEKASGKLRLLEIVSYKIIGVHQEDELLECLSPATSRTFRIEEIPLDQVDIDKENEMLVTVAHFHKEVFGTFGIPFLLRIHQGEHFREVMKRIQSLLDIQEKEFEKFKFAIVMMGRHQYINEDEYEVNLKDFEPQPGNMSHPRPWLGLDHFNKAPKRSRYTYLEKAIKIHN

Row | SMILES | IC50 [µM]
1 | CC1(C)CC(N2CCCc3cc(C#N)cc(-c4ccnc5cc(Cn6ncc(C(C)(C)C)cc6=O)sc45)c32)CN1 (stereo in doubt) [Example 132, (S)-8-(2-((4-(tert-butyl)-6-oxopyridazin-1(6H)-yl)methyl)thieno[3,2-b]pyridin-7-yl)-1-(5,5-dimethylpyrrolidin-3-yl)-1,2,3,4-tetrahydroquinoline-6-carbonitrile] | < 0.01
2 | N#Cc1cc(-c2ccnc3cc(Cn4ncc(C5(C(F)(F)F)CC5)cc4=O)sc23)c2c(c1)C1CC1CN2[C@@H]1CN[C@@H](CO)C1 (stereo in doubt) [Example 194b, (1aS,7bR)-3-((3S,5R)-5-(hydroxymethyl)pyrrolidin-3-yl)-4-(2-((6-oxo-4-(1-(trifluoromethyl)cyclopropyl)pyridazin-1(6H)-yl)methyl)thieno[3,2-b]pyridin-7-yl)-1a,2,3,7b-tetrahydro-1H-cyclopropa[c]quinoline-6-carbonitrile] | 0.01 to 0.1
3 | N[C@@H]1CCN(C2CCOc3cc(Cl)cc(-c4ccnc5cc(CN6C(=O)CCC6=O)sc45)c32)C1 (stereo in doubt) [Example 230a, 1-((7-((S)-4-((R)-3-aminopyrrolidin-1-yl)-7-chlorochroman-5-yl)thieno[3,2-b]pyridin-2-yl)methyl)pyrrolidine-2,5-dione] | 0.01 to 0.1
4 | O=C1CCC(=O)N1Cc1cc2nccc(-c3cc(Cl)cc4c3N(C3CN(C5CCC5)C3)CCC4)c2s1 [Example 3, 1-((7-(6-chloro-1-(1-cyclobutylazetidin-3-yl)-1,2,3,4-tetrahydroquinolin-8-yl)thieno[3,2-b]pyridin-2-yl)methyl)pyrrolidine-2,5-dione] | 0.01 to 0.1
5 | CCN1CC(N2CCCc3cc(Cl)cc(-c4ccnc5cc(CN6C(=O)CCC6=O)sc45)c32)C1 [Example 4, 1-((7-(6-chloro-1-(1-ethylazetidin-3-yl)-1,2,3,4-tetrahydroquinolin-8-yl)thieno[3,2-b]pyridin-2-yl)methyl)pyrrolidine-2,5-dione] | 0.01 to 0.1
6 | O=C1CCC(=O)N1Cc1cc2nccc(-c3cc(Cl)cc4c3N(C3CN(C5CC5)C3)CCC4)c2s1 [Example 5, 1-((7-(6-chloro-1-(1-cyclopropylazetidin-3-yl)-1,2,3,4-tetrahydroquinolin-8-yl)thieno[3,2-b]pyridin-2-yl)methyl)pyrrolidine-2,5-dione] | 0.01 to 0.1
7 | CC(=O)N1CC(N2CCCc3cc(Cl)cc(-c4ccnc5cc(CN6C(=O)CCC6=O)sc45)c32)C1 [Example 8, 1-((7-(1-(1-acetylazetidin-3-yl)-6-chloro-1,2,3,4-tetrahydroquinolin-8-yl)thieno[3,2-b]pyridin-2-yl)methyl)pyrrolidine-2,5-dione] | 0.101 to 1
8 | O=C1CCC(=O)N1Cc1cc2nccc(-c3cc(Cl)cc4c3N(C3CN(CCO)C3)CCC4)c2s1 [Example 10, 1-[[7-[6-chloro-1-[1-(2-hydroxyethyl)azetidin-3-yl]-3,4-dihydro-2H-quinolin-8-yl]thieno[3,2-b]pyridin-2-yl]methyl]pyrrolidine-2,5-dione] | 0.01 to 0.1
9 | O=C1CCC(=O)N1Cc1cc2nccc(-c3cc(Cl)cc4c3N(C3CN(CC(F)F)C3)CCC4)c2s1 [Example 11, 1-((7-(6-chloro-1-(1-(2,2-difluoroethyl)azetidin-3-yl)-1,2,3,4-tetrahydroquinolin-8-yl)thieno[3,2-b]pyridin-2-yl)methyl)pyrrolidine-2,5-dione] | 0.101 to 1
10 | N#CC1(CN2CC(N3CCCc4cc(Cl)cc(-c5ccnc6cc(CN7C(=O)CCC7=O)sc56)c43)C2)CC1 [Example 12, 1-((3-(6-chloro-8-(2-((2,5-dioxopyrrolidin-1-yl)methyl)thieno[3,2-b]pyridin-7-yl)-3,4-dihydroquinolin-1(2H)-yl)azetidin-1-yl)methyl)cyclopropanecarbonitrile] | 0.101 to 1
11 | CC1(C)C2C(=O)N(Cc3cc4nccc(-c5cc(Cl)cc6c5N(C5CNC5)CCC6)c4s3)C(=O)C21 (stereo not shown) [Example 14, 3-[[7-[1-(azetidin-3-yl)-6-chloro-3,4-dihydro-2H-quinolin-8-yl]thieno[3,2-b]pyridin-2-yl]methyl]-6,6-dimethyl-3-azabicyclo[3.1.0]hexane-2,4-dione] | 0.01 to 0.1
12 | O=c1c2ccccc2ncn1Cc1cc2nccc(-c3cc(Cl)cc4c3N(C3CNC3)CCC4)c2s1 [Example 19, 3-[[7-[1-(azetidin-3-yl)-6-chloro-3,4-dihydro-2H-quinolin-8-yl]thieno[3,2-b]pyridin-2-yl]methyl]quinazolin-4-one] | > 1

The next lines start with the values.

Row | IC50 [µM] | SMILES
13 | 0.101 to 1 | Cn1ccnc(Cc2cc3nccc(-c4cc(Cl)cc5c4N([C@@H]4CNC6(CCC6)C4)CCC5)c3s2)c1=O (stereo in doubt) [Example 160, 3-((7-(6-chloro-1-(5-azaspiro[3.4]octan-7-yl)-1,2,3,4-tetrahydroquinolin-8-yl)thieno[3,2-b]pyridin-2-yl)methyl)-1-methylpyrazin-2(1H)-one]
14 | 0.01 to 0.1 | CC(C)(C)c1cnn(Cc2cc3nccc(-c4cc(Cl)cc5c4N(C4CNC(CO)(CO)C4)CCO5)c3s2)c(=O)c1 (stereo in doubt) [Example 213a, (R)-2-((7-(4-(5,5-bis(hydroxymethyl)pyrrolidin-3-yl)-7-chloro-3,4-dihydro-2H-benzo[b][1,4]oxazin-5-yl)thieno[3,2-b]pyridin-2-yl)methyl)-5-(tert-butyl)pyridazin-3(2H)-one]
15 | < 0.01 | CC(C)(C)c1cnn(Cc2cc3nccc(-c4cc(Cl)cc5c4N(C4CNC(CO)(CO)C4)CCO5)c3s2)c(=O)c1 (stereo in doubt) [Example 213b, (S)-2-((7-(4-(5,5-bis(hydroxymethyl)pyrrolidin-3-yl)-7-chloro-3,4-dihydro-2H-benzo[b][1,4]oxazin-5-yl)thieno[3,2-b]pyridin-2-yl)methyl)-5-(tert-butyl)pyridazin-3(2H)-one]
16 | < 0.01 | CCn1c(N(C)C)cc(=O)n(Cc2cc3nccc(-c4cc(C#N)cc5c4N([C@H]4CN[C@](C)(CO)C4)CCO5)c3s2)c1=O (stereo in doubt) [Example 219, 5-(2-((4-(dimethylamino)-3-ethyl-2,6-dioxo-2,3-dihydropyrimidin-1(6H)-yl)methyl)thieno[3,2-b]pyridin-7-yl)-4-((3R,5S)-5-(hydroxymethyl)-5-methylpyrrolidin-3-yl)-3,4-dihydro-2H-benzo[b][1,4]oxazine-7-carbonitrile]
17 | > 1 | N[C@@H]1CCN(C2CCOc3cc(Cl)cc(-c4ccnc5cc(CN6C(=O)CCC6=O)sc45)c32)C1 (stereo in doubt) [Example 230b, 1-((7-((R)-4-((R)-3-aminopyrrolidin-1-yl)-7-chlorochroman-5-yl)thieno[3,2-b]pyridin-2-yl)methyl)pyrrolidine-2,5-dione]
18 | 0.01 to 0.1 | O=C1CCC(=O)N1Cc1cc2nccc(-c3cc(Cl)cc4c3N(C3CNC3)CCC4)c2s1 [Example 1, 1-((7-(1-(azetidin-3-yl)-6-chloro-1,2,3,4-tetrahydroquinolin-8-yl)thieno[3,2-b]pyridin-2-yl)methyl)pyrrolidine-2,5-dione]
19 | 0.01 to 0.1 | CN1CC(N2CCCc3cc(Cl)cc(-c4ccnc5cc(CN6C(=O)CCC6=O)sc45)c32)C1 [Example 2, 1-((7-(6-chloro-1-(1-methylazetidin-3-yl)-1,2,3,4-tetrahydroquinolin-8-yl)thieno[3,2-b]pyridin-2-yl)methyl)pyrrolidine-2,5-dione]
20 | 0.01 to 0.1 | O=C1CCC(=O)N1Cc1cc2nccc(-c3cc(Cl)cc4c3N(C3CN(C5COC5)C3)CCC4)c2s1 [Example 6, 1-((7-(6-chloro-1-(1-(oxetan-3-yl)azetidin-3-yl)-1,2,3,4-tetrahydroquinolin-8-yl)thieno[3,2-b]pyridin-2-yl)methyl)pyrrolidine-2,5-dione]
21 | 0.101 to 1 | CNC(=O)N1CC(N2CCCc3cc(Cl)cc(-c4ccnc5cc(CN6C(=O)CCC6=O)sc45)c32)C1 [Example 7, 3-[6-chloro-8-[2-[(2,5-dioxopyrrolidin-1-yl)methyl]thieno[3,2-b]pyridin-7-yl]-3,4-dihydro-2H-quinolin-1-yl]-N-methyl-azetidine-1-carboxamide]
22 | 0.01 to 0.1 | O=C1C2CC2C(=O)N1Cc1cc2nccc(-c3cc(Cl)cc4c3N(C3CNC3)CCC4)c2s1 (stereo not shown) [Example 13, 3-((7-(1-(azetidin-3-yl)-6-chloro-1,2,3,4-tetrahydroquinolin-8-yl)thieno[3,2-b]pyridin-2-yl)methyl)-3-azabicyclo[3.1.0]hexane-2,4-dione]
23 | 0.01 to 0.1 | O=c1cccnn1Cc1cc2nccc(-c3cc(Cl)cc4c3N(C3CNC3)CCC4)c2s1 [Example 16, 2-[[7-[1-(azetidin-3-yl)-6-chloro-3,4-dihydro-2H-quinolin-8-yl]thieno[3,2-b]pyridin-2-yl]methyl]pyridazin-3-one]
24 | 0.01 to 0.1 | Cc1ccc(=O)n(Cc2cc3nccc(-c4cc(Cl)cc5c4N(C4CNC4)CCC5)c3s2)n1 [Example 17, 2-[[7-[1-(azetidin-3-yl)-6-chloro-3,4-dihydro-2H-quinolin-8-yl]thieno[3,2-b]pyridin-2-yl]methyl]-6-methyl-pyridazin-3-one]
25 | 0.01 to 0.1 | Cc1ccnn(Cc2cc3nccc(-c4cc(Cl)cc5c4N(C4CNC4)CCC5)c3s2)c1=O [Example 18, 2-[[7-[1-(azetidin-3-yl)-6-chloro-3,4-dihydro-2H-quinolin-8-yl]thieno[3,2-b]pyridin-2-yl]methyl]-4-methyl-pyridazin-3-one]
26 | 0.101 to 1 | O=c1c2ccccc2cnn1Cc1cc2nccc(-c3cc(Cl)cc4c3N(C3CNC3)CCC4)c2s1 [Example 21, 2-[[7-[1-(azetidin-3-yl)-6-chloro-3,4-dihydro-2H-quinolin-8-yl]thieno[3,2-b]pyridin-2-yl]methyl]phthalazin-1-one]
27 | 0.01 to 0.1 | Cc1cnn(Cc2cc3nccc(-c4cc(Cl)cc5c4N(C4CNC4)CCC5)c3s2)c(=O)c1 [Example 22, 2-[[7-[1-(azetidin-3-yl)-6-chloro-3,4-dihydro-2H-quinolin-8-yl]thieno[3,2-b]pyridin-2-yl]methyl]-5-methyl-pyridazin-3-one]
28 | < 0.01 | O=c1ccn(CC(F)F)c(=O)n1Cc1cc2nccc(-c3cc(Cl)cc4c3N(C3CNC3)CCC4)c2s1 [Example 23, 3-[[7-[1-(azetidin-3-yl)-6-chloro-3,4-dihydro-2H-quinolin-8-yl]thieno[3,2-b]pyridin-2-yl]methyl]-1-(2,2-difluoroethyl)pyrimidine-2,4-dione]
